# According to patent publication US11661404B2, “Prodrug compounds activated by AKR1C3 and their use for treating hyperproliferative disorders” (priority 2018, dated 2023):
# Where two headings read alike, the source gives them in different places.
# Experiments:
# [1] = test system: wild-type PLC/PRF/5 hepatocellular carcinoma cells; assay: Anti-proliferative IC50 assay, wild-type PLC/PRF/5; type: cell-based, human; settings: Homo sapiens, PLC-PRF-5
# Experimental: (§1) Four hundred cells were seeded in a volume of 100 μL in each well of a 96-well plate. The cells were left in a humidified incubator (37° C., 5% CO2) for 2 hours in order to enable attachment to the surface of the wells prior to compound addition. All compounds were prepared as stocks in DMSO and stored at −80° C. Frozen stocks of compounds were thawed immediately prior to addition to cells. Working solutions of each compound were made in α-MEM+5% FBS (v/v) at 3 times the required final concentration for the top well. The final concentration of DMSO in the α-MEM solution was ensured to not exceed 1% of the total volume. 50 μL of the working solution was added to the top wells (in duplicates) and gently mixed. The solubility of some compounds precluded the working solution in α-MEM to be 3 times the desired top well concentration. […] A 3-fold serial dilution was carried out along the plate starting from the top well. The first column of wells on the plate served as blanks (containing α-MEM+FBS) and the second column served as control wells (containing cells with no compound added). Following compound addition, the plates were incubated for 4 hours in a humidified incubator (37° C., 5% CO2).
# (§2) Following the 4 hour compound exposure, the 96-well plates were washed three times by aspirating media with an Immuno Washer (Nunc) and each well replaced with 150 μL of α-MEM+5% (v/v) FBS+1% (v/v) P/S. The plates were left in a humidified incubator (37° C., 5% CO2) for 5 days to enable cell growth. The cells in 96-well plates were fixed 5 days after compound exposure by adding 50 μL of a 40% (w/v) trichloroacetic acid (TCA) solution so as to obtain a final TCA concentration of 10% in each well. The plates were left in the refrigerator (4° C.) for 1 hour and subsequently rinsed 3 times in tap water. Any excess water was left to drain and the cells were stained with 50 μL of 0.4% (w/v) sulforhodamine B (SRB). The plates with the SRB stain were left in the dark for 30 minutes. Excess stain was removed from the wells by rinsing the plates 4 times in water containing 1% (v/v) acetic acid. The stain was solubilised by adding 100 μL of 10 mM unbuffered Tris (pH 10.5) to each well and the plates were left in a shaker in a dark environment at room temperature for at least 1 hour. The absorbance values of the wells were determined by an ELx 808 Absorbance Microplate Reader (Bio-Tek Instruments, Winooski, Vt., USA), with the wavelength of the measurement filter set at 490 nm and a reference filter set at 450 nm. The absorbance of the reference filter was subtracted from the measurement filter to obtain a final absorbance of λ490-450 nm. The absorbance data was analysed and IC50 values determined by the KC4 microplate data analysis software (KC4™ V3.4, Bio-Tek).
# (§3) Anti-proliferative IC50 assays were repeated as described above including the addition of 3 μM SN34037, a selective and potent small molecule inhibitor of AKR1C3.
# (§4) Materials and methods used are as described for Example 9.
# [2] = test system: wild-type HCT116 colon cancer cells; assay: Anti-proliferative IC50 under oxic and anoxic conditions; type: cell-based, human; settings: for IC50: Homo sapiens, HCT-116
# Text: PR-104A was initially designed and optimised as a hypoxia-selective cytotoxin (Patterson et al, Clinical Cancer Research, 2007, 13, 3922-3932). In the context of an AKR1C3-activated prodrug, this route of activation is considered off-mechanism and may potentially be undesirable, leading to off-target toxicities in a subject. Preferred compounds of the invention have been determined to be substantially resistant to hypoxia-dependent activation and cytotoxicity in wild-type HCT116 colon cancer cells. HCT116 cells were treated with compounds of the invention under either oxic or anoxic conditions and then their degree of anti-proliferative activity determined.
# Selected compounds were evaluated for cytotoxic potential (IC50) under anoxic conditions. The same procedures as described above for Examples 9-11 were carried out in a Bactron anoxic chamber (Sheldon Manufacturing Inc) with internal 37° C. incubators where palladium catalyst scrubbed gas (90% N2, 5% H2, 5% CO2) ensured severe anoxia (<0.001% O2) in the whole chamber. All materials required (including cells) were taken into the chamber through two cycles of vacuum and gassing with 100% N2, followed by a single cycle with 5% CO2 and 5% hydrogen in nitrogen. All experimental materials were placed in the anoxic chamber at least 3 days prior to the day required for the experiment in order to remove any traces of residual O2. The medium used for the 96-well plates in the anoxic chamber consisted of α-MEM+10% (v/v) FBS+1% (v/v) additives (1 M β-D-Glucose and 20 mM 2′-Deoxycytidine).
# [3] = test system: AKR1C3 mixed MCLs; settings: Silva, MSc Thesis; cited from earlier work
# [4] = test system: SNU398 hepatocellular carcinoma cells engineered to over-express AKR1C3; assay: Anti-proliferative IC50 assay, SNU398 over-expressing AKR1C3; type: cell-based, human; settings: for IC50: Homo sapiens
# Experimental: as §1, §2, §3
# (§5) Materials and methods used are as described for Example 9. […] This is a surprising finding and considerably greater than the approximately 77-fold, 270-fold and 400-fold increase in sensitivity observed for PR-104A, SN33540 and SN34454, respectively. In all cases, this increase in cytotoxicity resulting from expression of AKR1C3 can be substantially reversed by addition of an AKR1C3 inhibitor (SN34037), directly implicating metabolism of the prodrugs by AKR1C3 in the observed increase in cytotoxicity. As an important control, introduction of SN34037 had no anti-proliferative effects in wild-type SNU398 cells treated with compounds of the invention.
# [5] = test system: wild-type H460 lung cancer cells; assay: Anti-proliferative IC50 assay, wild-type H460; type: cell-based, human; settings: for IC50: Homo sapiens
# Experimental: as §1, §2, §3, §4
# [6] = test system: wild-type SNU398 hepatocellular carcinoma cells; assay: Anti-proliferative IC50 assay, wild-type SNU398; type: cell-based; settings: Homo sapiens
# Experimental: as §1, §2, §3, §5
# [7] = test system: wild-type HCT116 colon cancer cells; assay: Anti-proliferative IC50 assay (SRB), wild-type HCT116; type: cell-based, human
# Text: (§6) The cellular cytotoxicity of compounds of the invention resulting from AKR1C3-dependent metabolism of the compounds can readily be observed in anti-proliferative IC50 testing in isogenic cell lines that have been engineered to over-express human AKR1C3, relative to their wild-type counterparts that have been selected for their comparatively low levels of endogenous AKR1C3 expression (by Western blot analysis). The direct role of AKR1C3 in metabolism and cytotoxicity of the compounds is further supported for selected examples by repeat anti-proliferative experiments in the presence of a potent and selective small molecule inhibitor of AKR1C3, SN34037 (Flanagan et al., Bioorganic & Medicinal Chemistry (2014), 22(3), 967-977).
# as §1, §2, §3
# [8] = test system: HCT116 colon cancer cells engineered to over-express AKR1C3; assay: Anti-proliferative IC50 assay (SRB), HCT116 over-expressing AKR1C3; type: cell-based, human; settings: for IC50 Ratio WT:AKR1C3: HCT116-WT vs HCT116-AKR1C3
# Text: as §6, §1, §2, §3
# [9] = target: T1, recombinant human AKR1C3 (Homo sapiens, UniProt P42330); assay: Kinetics assay: metabolism of prodrugs by recombinant human AKR1C3; type: biochemical; settings: NADPH, pH 7.4, 37° C.
# T1 construct: His6 (hexahistidine) (C); made in house; host or cells: E. coli BL21(DE3)
# T1 sequence (P42330 1-323): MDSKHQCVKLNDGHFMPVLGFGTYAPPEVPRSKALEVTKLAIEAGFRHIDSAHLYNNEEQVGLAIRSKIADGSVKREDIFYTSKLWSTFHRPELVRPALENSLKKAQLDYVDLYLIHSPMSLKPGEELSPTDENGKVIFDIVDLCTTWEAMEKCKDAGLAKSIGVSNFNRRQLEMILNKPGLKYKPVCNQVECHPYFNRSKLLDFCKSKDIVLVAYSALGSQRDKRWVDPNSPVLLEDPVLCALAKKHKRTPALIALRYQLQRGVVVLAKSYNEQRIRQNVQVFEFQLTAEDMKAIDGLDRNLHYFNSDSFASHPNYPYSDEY
# Experimental: E. coli BL21(DE3) cells expressing the pET22b-AKR1C3 construct with a C-terminal hexahistidine (His6) tag and constitutive promoter was generated. Colonies of these transformed E. coli cells were grown in LB agar medium containing 100 μg/mL of ampicillin. A single colony was picked the following day and grown in 400 mL batches of bacterial medium containing ampicillin (100 μg/mL) at 37° C., with continuous shaking at 200 rpm overnight. Bacterial cultures were pelleted by centrifugation (4000×g, 15 minutes) and resuspended in lysis buffer (10 mL/400 mL culture). The cells were disrupted by sonication (Sonicator 3000, Misonix) and centrifuged at 14,000 rpm for 30 minutes (at 4° C.). The cleared lysate was filtered in successive filters containing pore sizes of 1.20 μm, 0.8 μm and 0.2 μm and loaded onto a nickel-agarose affinity chromatography column on an ÄKTA Purifier system. The column was washed with 20 mL of the lysis buffer and the His6-tagged AKR1C3 protein was eluted with lysis buffer supplemented with 500 mM imidazole. The protein was further purified by a liquid chromatography gel filtration column (Superdex 200 HR16/60) using lysis buffer (supplemented with 5% v/v glycerol) and 1 mM DTT (pH 7.0) at a flow rate of 0.3 mL/min. Protein was monitored by absorbance at 280 nm, and purity of the fractions (1 mL) was assessed by SDS-PAGE. Active fractions containing the purified protein were pooled and concentrated by centrifugation (3,000×g, 4° C.) on a Vivaspin concentrator (MWCO 10,000 cutoff; GE Healthcare). The protein containing solution was supplemented with glycerol (to a final concentration of 15%, v/v) and NADP^+ was added to a final concentration of 2 mM.
# Kinetic parameters of compounds of the invention were determined in a 96-well plate format. The 100 mM potassium phosphate buffer used in this assay was made with the following reagents to a pH of 7.4: • 0.5 M K2HPO4— 8.2 mL • 0.5 M KH2PO4— 1.8 mL • BSApowder—25 mg • Milli Q water—40 mL
# For the assay, 2 μL of varying substrate concentrations were incubated with 94 μL of the potassium phosphate buffer and 2 μL of 5 mM NADPH for 5 minutes in the pre-warmed (37° C.) plate chamber of a Molecular Devices SpectraMax M2 plate reader. Purified AKR1C3 enzyme (2 μL) was added to a final concentration of […] in each well using an Eppendorf electronic multi-channel pipette. Absorbance measurements were recorded immediately upon addition of enzyme over a period of 5 minutes at a wavelength of 400 nm. Absorbance changes for each compound concentration were plotted against time to obtain the rate of absorbance change over the 5 minute period. The rate of absorbance change was then plotted against the compound concentration and non-linear regression analysis and Michaelis-Menten curve fitting performed on GraphPadPrism (version 5.00 for Windows, GraphPad Software, San Diego Calif. USA) in order to determine kinetic parameters of compounds.
# [10] = read-out: PLC/PRF/5-WT Anti-proliferative IC50
# [11] = with 3 μM SN34037, read-out: PLC/PRF/5-WT +AKR1C3 Inhibitor Anti-proliferative IC50
# [12] = SNU-398, read-out: SNU398-AKR1C3 +AKR1C3 Inhibitor Anti-proliferative IC50
# [13] = SNU-398, read-out: SNU398-AKR1C3 Anti-proliferative IC50
# [14] = NCI-H460, read-out: H460-WT +AKR1C3 Inhibitor Anti-proliferative IC50
# [15] = NCI-H460, read-out: H460-WT Anti-proliferative IC50
# [16] = SNU-398, read-out: SNU398-WT +AKR1C3 Inhibitor Anti-proliferative IC50
# [17] = SNU-398, read-out: SNU398-WT Anti-proliferative IC50
# [18] = Homo sapiens, HCT-116, read-out: HCT116-WT IC50
# [19] = Homo sapiens, HCT-116, read-out: HCT116-AKR1C3 IC50
Compound,"IC50 [1, 10]","IC50 [1, 11]","IC50 [4, 12]","IC50 [4, 13]","IC50 [5, 14]","IC50 [5, 15]","IC50 [6, 16]","IC50 [6, 17]","IC50 [7, 18]",IC50 Ratio WT:AKR1C3 [8],"IC50 [8, 19]",also measured
"CN1CCN(C(=O)c2cc([N+](=O)[O-])cc([N+](=O)[O-])c2N(CCBr)CCOS(C)(=O)=O)CC1 [SN33540, reference compound]",83.9 µM,248 µM,193 µM,0.844 µM,97.7 µM,0.536 µM,248 µM,231 µM,–,–,–,"IC50 ([2]; anoxic (<0.001% O2), read-out: HCT116-WT Anti-proliferative IC50 Anoxic): 5.1 µM; IC50 ([2]; read-out: HCT116-WT Anti-proliferative IC50 Oxic): 127 µM; Hypoxic Cytotoxicity Ratio (HCR) ([2]; oxic vs anoxic IC50, HCT116-WT): 25; BEE reported in AKR1C3 mixed MCLs [3]: 60%; increase in sensitivity when SNU398 cells express AKR1C3 ([4]; SNU398-WT vs SNU398-AKR1C3): ~270 fold"
CS(=O)(=O)O.CS(=O)(=O)OCCN(CCOS(C)(=O)=O)c1ccc([N+](=O)[O-])cc1S(=O)(=O)N1CCNCC1,–,–,–,–,–,–,–,–,–,–,–,melting point: 147 to 149 °C
"CN1CCN(S(=O)(=O)c2cc([N+](=O)[O-])ccc2N(CCBr)CCBr)CC1 [Compound 563, N,N-bis(2-bromoethyl)-2-((4-methylpiperazin-1-yl)sulfonyl)-4-nitroaniline]",4.2 µM,21.5 µM,4.19 µM,0.015 µM,3.09 µM,0.019 µM,5.87 µM,6.93 µM,7.34 µM,816,0.009 µM,"IC50 ([7]; read-out: HCT116-WT + AKR1C3 Inhibitor IC50, with 3 μM SN34037): 5.89 µM; more cytotoxic in H460 cells than SN34118 [5]: 82 fold; more cytotoxic than SN34118 to AKR1C3-expressing HCT116 cells [8]: 43 fold; IC50 ([8]; read-out: HCT116-AKR1C3 + AKR1C3 Inhibitor IC50, with 3 μM SN34037): 3.26 µM"
"N#Cc1cccc2c1CCN(C(=O)c1cc([N+](=O)[O-])cc([N+](=O)[O-])c1N(CCBr)CCBr)C2 [SN34951, reference compound]",–,–,–,–,–,–,–,–,> 150 µM,>38,3.97 µM,Km [9]: 8.5 µM; kcat [9]: 29.0 s⁻¹
